# From patent publication US7947312B2, “Method of preparation and composition of a water soluble extract of the bioactive component of the plant species Uncaria for enhancing immune, anti-inflammatory, anti-tumor and DNA repair processes of warm blooded animals” (priority 2002, dated 2011)
# Where a name gives a salt, the structure may show the parent alone.
# Key:
# [1] = test system: human HL-60 leukemic cells; assay: In vitro growth inhibition by QA salts in cultured HL-60 cells, MTT, 72 hr (FIG. 8); type: cell-based; conditions: for in vitro cytotoxicity compared to C-MED-100 (FIG. 8): HL-60 cells
# Procedure: QA was purchased from Sigma (>99%). QA salts were synthesized by neutralization with the appropriate base, i.e., NH4OH, NaOH, Ca(OH)2, Zn(OH)2, LiOH, KOH, lysine or histidine. Serial dilutions of test compounds were added to human HL-60 leukemic cells (0.05×10^6 cells/ml) in 96-well, flat bottomed microtiter plates to give final concentrations in the cultures up to 3000 μg/ml. The plates were incubated for 72 hr at 37 C, pulsed with 20 μl MTT (5 mg/ml) for 3 hr, and the color estimated spectrophotometrically at 540 nm as described previously. (Schweitzer, C M et al. Spectrophotometric determination of clonogenic capacity of leukemic cells in semisolid microtiter culture systems. Experimental Hematology 21: 573-578, 1993). IC50 values were calculated and compared based on the live/dead ratio of cells.
# [2] = test system: Raji cells; assay: Raji cell death and apoptosis (Annexin V / 7AAD flow cytometry); type: cell-based, human
# Excerpt: Cells from the same cultures as in FIG. 3B were stained with Annexin V and 7AAD and analyzed by flow cytometry. The results are presented as the mean number of Annexin V^+ 7AAD^− (apoptotic) or 7AAD^+ (dead) cells±S.D. of duplicates from three experiments with similar results. Statistically significant differences (*p<0.05) and (**p<0.01), compared to Raji cells grown in medium (no drug).
# Cell cultures: Raji human Burkitt's lymphoma (CCL-86), Jurkat human acute T-cell leukemia (TIB-152), 70Z/3 mouse pre-B lymphocyte cell line (TIB-158), or mouse spleen cells were used in the experiments. The cells were cultured in RPMI medium (Life Technologies) supplemented with 10% FCS, 10 mM HEPES buffer, antibiotics, 50 μM 2-mercaptoethanol and 1 mM sodium pyruvate (all supplements from Life Technologies) at 37° C., 5% CO2. The number of Raji cells in duplicate cultures were determined with a Coulter Z1 cell counter (Beckman Coulter Inc, Fullerton, Calif., USA) three times each. The number of viable and dead cells were determined using trypan blue exclusion, by counting three independent samples from duplicate cultures. […] Proliferation was detected by measuring thymidine incorporation after a 4 hours pulse with 1 μCi ^3[H]-thymidine (Amersham Pharmacia).
# [3] = test system: NF-κB; assay: NF-κB reporter (luciferase) in transfected Jurkat T cells; type: cell-based, human; conditions: PMA 50 ng/ml and ionomycin 1 μM, 2 h pre-culture, 6 h stimulation
# Procedure: FIG. 5A illustrates Jurkat T that are cells transfected with a NF-κB reporter construct were pre-cultured with various concentrations of QA or C-MED-100® for two hours. PMA (50 ng/ml) and ionomycin (1 μM) were thereafter added and the cells incubated for another six hours. The mean induction of luciferase activity in triplicate cultures from one representative experiment out of four are shown (left panel). QA induced no cell death or apoptosis in Jurkat T cells at concentrations which inhibited NF-κB activity. Jurkat T cells were incubated with various concentrations of QA for 24 hours and thereafter stained with Annexin V and 7AAD before analysis by flow cytometry. The data are the mean values±S.D. of triplicates from one representative experiment out of two performed (right panel). Transient transfection and analysis of luciferase activity: The reporter construct containing NF-κB binding sequences and the luciferase reporter gene was previously described. […] The cells were lysed and aliquots of the lysates analyzed for luciferase activity using the Luciferase Assay System (Promega, Madison, Wis.). Luminiscence was quantitated in a MicroLumat LB 96 P luminometer (EG&G Berthold, Wallac […], Upplands Väsby, Sweden).
# [4] = test system: HL-60 human leukemic cells; assay: In vitro cytotoxicity in HL-60 cells, MTT assay (Table 2); type: cell-based; conditions: Homo sapiens, HL-60; no base hydrolysis
# Procedure: In Table 2, the in vitro cytotoxicity of the various components were determined in HL-60 human leukemic cells using the MTT assay and calculation of IC50 values as described in detail elsewhere. Quinic acid ester content was determined by the Bartos method (Bartos, 1980). […] The quinic acid traveling between Rf=0.2-0.3 was eluted from the TLC plates with 1% aqueous ammonia and the relative quantity estimated by absorption at 200 nm as ± being less than 0.050 and “++++” denoting the highest amount detected, with a decrease in the number of “+” signs corresponding to a decrease in the amount of QA detected.
# [5] = test system: mouse spleen cells; type: cell-based; conditions: for fraction of apoptotic T cells: Con A stimulated cultures (FIG. 4B); for induction of cell death in mitogen-stimulated spleen cells: mouse
# Excerpt: Cells from parallel cultures were stained with trypan blue and the mean absolute number of viable and dead cells/ml from one out of three similar experiments are shown. […] Aliquots of the above cultures were stained with Annexin V and 7AAD and analyzed by flow cytometry. The results are presented as the mean number of Annexin V^+7AAD^− (apoptotic) and 7AAD^+ (dead) cells/ml±S.D. of duplicates from three experiments with similar results. Statistically significant differences (*p<0.05) and (**p<0.01) compared to the control cultures stimulated with Con A (FIG. 4B) or LPS (FIG. 4C) alone.
# Cell cultures: Raji human Burkitt's lymphoma (CCL-86), Jurkat human acute T-cell leukemia (TIB-152), 70Z/3 mouse pre-B lymphocyte cell line (TIB-158), or mouse spleen cells were used in the experiments. The cells were cultured in RPMI medium (Life Technologies) supplemented with 10% FCS, 10 mM HEPES buffer, antibiotics, 50 μM 2-mercaptoethanol and 1 mM sodium pyruvate (all supplements from Life Technologies) at 37° C., 5% CO2. The number of Raji cells in duplicate cultures were determined with a Coulter Z1 cell counter (Beckman Coulter Inc, Fullerton, Calif., USA) three times each. The number of viable and dead cells were determined using trypan blue exclusion, by counting three independent samples from duplicate cultures. Cells were stained with 2 μg/ml 7-amino-actinomycin D (7AAD; Sigma-Aldrich, St Louis, Mo., USA) and with Annexin V (Molecular Probes) according to the manufacturer's protocol and the cells were defined as apoptotic (Annexin V+7AAD^−) or dead (7AAD^+) by flow cytometry. Spleen cells were polyclonally activated with 2.5 μg/ml concanavalin A (Con A; Amersham Pharmacia, Uppsala, Sweden) or 10 μg/ml lipopolysaccharide (LPS; Sigma-Aldrich). PMA (50 ng/ml) and ionomycin (1 μM) (both from Sigma-Aldrich) and pyrollidine dithiocarbamate (PDTC) (100 μM, EMD Bioscience Inc, Calbiochem, San Diego, Calif., USA) were used in some cultures as indicated. Proliferation was detected by measuring thymidine incorporation after a 4 hours pulse with 1 μCi ^3[H]-thymidine (Amersham Pharmacia).
smiles,measurement,setting,value
"O=C(O)C1(O)CC(O)C(O)C(O)C1 (stereo not shown) [QA, 1,3,4,5-tetrahydroxy-cyclohexanecarboxylic acid]",in vitro cytotoxicity compared to C-MED-100 (FIG. 8),[1],much greater in vitro cytotoxicity than does C-MED-100®
same,induction of cell death in Raji cells,[2],do not induce cell death
same,NF-κB activity (luciferase reporter),[3],"in a dose dependent manner, inhibited the NF-κB activity"
same,IC50,[4],> 2300 µg/mL
same,fraction of apoptotic T cells,[5],tendency to reduction (p=0.053)
same,induction of cell death in mitogen-stimulated spleen cells,[5],"neither C-MED-100®, QAA nor QA induce cell death"
"O=C(O)[C@]1(O)C[C@@H](O)[C@@H](O)[C@H](O)C1 [QAA, quinic acid ammonium salt]",in vitro cytotoxicity compared to C-MED-100 (FIG. 8),[1],in vitro cytotoxicity comparable to that of C-MED-100®
same,IC50,"[1]; Homo sapiens, HL-60",≤ 1100 µg/mL
same,induction of cell death in Raji cells,[2],do not induce cell death
same,NF-κB activity (luciferase reporter),[3],inhibited the NF-κB activity to a similar extent as QA
same,IC50,[4],500 µg/mL
same,fraction of apoptotic T cells,[5],significantly reduced the fraction of apoptotic T cells
same,induction of cell death in mitogen-stimulated spleen cells,[5],"neither C-MED-100®, QAA nor QA induce cell death"
